Read-outs that look alike come from different tables or passages of the source.
Key:
Assay type in all cases: cell-based
human TLR9 = biological target: T1, human TLR9 (Homo sapiens, UniProt Q9NR96); experiment: TLR9 inhibition reporter assay (HEK-Blue cells, SEAP reporter, ODN2006 stimulation); conditions: HEK-Blue cells overexpressing human TLR9, SEAP reporter, ODN2006 5 nM
T1 construct: host or cells: HEK-Blue cells
T1 sequence (Q9NR96 26-1032): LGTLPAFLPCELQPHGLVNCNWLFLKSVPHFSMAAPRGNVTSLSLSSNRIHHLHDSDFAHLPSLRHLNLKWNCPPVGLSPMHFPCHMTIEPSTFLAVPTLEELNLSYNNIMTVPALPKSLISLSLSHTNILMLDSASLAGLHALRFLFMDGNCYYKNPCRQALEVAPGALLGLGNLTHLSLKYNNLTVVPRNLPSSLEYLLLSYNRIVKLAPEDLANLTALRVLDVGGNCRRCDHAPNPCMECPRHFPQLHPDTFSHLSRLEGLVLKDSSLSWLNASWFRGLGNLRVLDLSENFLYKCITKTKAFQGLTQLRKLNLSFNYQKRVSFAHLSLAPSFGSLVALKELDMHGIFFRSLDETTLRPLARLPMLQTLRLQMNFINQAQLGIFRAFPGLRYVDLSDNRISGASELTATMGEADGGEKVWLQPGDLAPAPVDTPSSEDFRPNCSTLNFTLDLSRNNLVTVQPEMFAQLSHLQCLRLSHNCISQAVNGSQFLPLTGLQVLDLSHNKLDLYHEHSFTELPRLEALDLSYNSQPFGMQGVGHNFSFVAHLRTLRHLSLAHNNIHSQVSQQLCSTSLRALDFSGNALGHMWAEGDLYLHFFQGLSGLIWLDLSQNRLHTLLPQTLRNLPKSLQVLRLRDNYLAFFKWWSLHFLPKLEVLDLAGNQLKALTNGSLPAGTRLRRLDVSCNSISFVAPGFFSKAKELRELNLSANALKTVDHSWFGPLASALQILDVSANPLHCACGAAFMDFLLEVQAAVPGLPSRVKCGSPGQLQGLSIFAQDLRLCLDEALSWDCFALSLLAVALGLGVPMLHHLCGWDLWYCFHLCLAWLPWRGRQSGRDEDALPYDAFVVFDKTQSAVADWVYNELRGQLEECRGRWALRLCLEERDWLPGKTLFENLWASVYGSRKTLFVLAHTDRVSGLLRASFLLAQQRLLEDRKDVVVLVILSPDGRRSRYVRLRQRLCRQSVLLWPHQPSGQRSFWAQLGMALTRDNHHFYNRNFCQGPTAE
Experimental: TLR7/8/9 Inhibition Reporter Assays
HEK-Blue™-cells (Invivogen) overexpressing human TLR7, TLR8 or TLR9 receptors were used for screening inhibitors of these receptors using an inducible SEAP (secreted embryonic alkaline phosphatase) reporter gene under the control of the IFN-β minimal promoter fused to five NF-κB and AP-1-binding sites. Briefly, cells are seeded into Greiner 384 well plates (15000 cells per well for TLR7, 20,000 for TLR8 and 25,000 for TLR9) and then treated with test compounds in DMSO to yield a final dose response concentration range of 0.05 nM-50 μM. After a 30 minute compound pre-treatment at room temperature, the cells are then stimulated with a TLR7 ligand (gardiquimod at a final concentration of 7.5 μM), TLR8 ligand (R848 at a final concentration of 15.9 μM) or TLR9 ligand (ODN2006 at a final concentration of 5 nM) to activate NF-κB and AP-1 which induce the production of SEAP. After a 22 hour incubation at 37° C., 5% CO2, SEAP levels are determined with the addition of HEK-Blue™ Detection reagent (Invivogen), a cell culture medium that allows for detection of SEAP, according to manufacturer's specifications. The percent inhibition is determined as the % reduction in the HEK-Blue signal present in wells treated with agonist plus DMSO alone compared to wells treated with a known inhibitor.

human TLR7 = biological target: T2, human TLR7 (Homo sapiens, UniProt Q9NYK1); experiment: TLR7 inhibition reporter assay (HEK-Blue cells, SEAP reporter, gardiquimod stimulation); conditions: gardiquimod 7.5 μM
T2 construct: host or cells: HEK-Blue cells
T2 sequence (Q9NYK1 27-1049): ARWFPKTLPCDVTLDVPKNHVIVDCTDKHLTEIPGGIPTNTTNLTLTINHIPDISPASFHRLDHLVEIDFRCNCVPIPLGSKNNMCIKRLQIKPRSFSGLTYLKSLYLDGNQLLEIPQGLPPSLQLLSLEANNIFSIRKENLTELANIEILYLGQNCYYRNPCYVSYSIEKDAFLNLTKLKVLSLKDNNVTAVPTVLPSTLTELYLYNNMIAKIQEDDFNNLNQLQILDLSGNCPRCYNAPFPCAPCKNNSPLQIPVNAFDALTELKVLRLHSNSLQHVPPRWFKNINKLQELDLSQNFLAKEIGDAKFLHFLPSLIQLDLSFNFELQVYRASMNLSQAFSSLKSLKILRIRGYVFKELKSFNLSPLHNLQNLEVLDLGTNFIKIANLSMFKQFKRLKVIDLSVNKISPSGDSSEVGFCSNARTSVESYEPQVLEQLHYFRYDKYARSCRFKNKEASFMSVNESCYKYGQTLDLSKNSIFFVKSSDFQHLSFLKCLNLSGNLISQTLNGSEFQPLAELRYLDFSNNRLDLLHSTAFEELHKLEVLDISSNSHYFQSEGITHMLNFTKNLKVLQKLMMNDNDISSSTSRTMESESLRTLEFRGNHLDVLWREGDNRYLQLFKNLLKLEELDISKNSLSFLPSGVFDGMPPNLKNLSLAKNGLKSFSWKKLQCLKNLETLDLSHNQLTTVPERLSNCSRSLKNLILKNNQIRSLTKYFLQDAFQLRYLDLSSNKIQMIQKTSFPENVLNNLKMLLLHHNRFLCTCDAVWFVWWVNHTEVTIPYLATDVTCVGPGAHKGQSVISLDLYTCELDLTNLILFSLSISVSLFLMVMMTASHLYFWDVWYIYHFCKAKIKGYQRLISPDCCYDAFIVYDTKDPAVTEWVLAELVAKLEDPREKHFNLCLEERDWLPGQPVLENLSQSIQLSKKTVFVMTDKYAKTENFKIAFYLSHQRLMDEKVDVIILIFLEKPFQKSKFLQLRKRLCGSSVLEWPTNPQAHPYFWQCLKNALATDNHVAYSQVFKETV
How it was run: (§1)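 Agonists used: gardiquimod 7.5 μM (TLR7), R848 15.9 μM (TLR8), ODN2006 5 nM (TLR9), added after 30 min room-temperature compound pre-treatment (0.05 nM–50 μM) of receptor-overexpressing HEK-Blue cells. SEAP reporter (NF-κB/AP-1 driven) read after 22 h at 37 °C; inhibition scaled between agonist+DMSO and reference-inhibitor wells.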

human TLR8 = biological target: T3, human TLR8 (Homo sapiens, UniProt Q9NR97); experiment: TLR8 inhibition reporter assay (HEK-Blue cells, SEAP reporter, R848 stimulation); conditions: R848 15.9 μM
T3 construct: host or cells: HEK-Blue cells
T3 sequence (Q9NR97 27-1041): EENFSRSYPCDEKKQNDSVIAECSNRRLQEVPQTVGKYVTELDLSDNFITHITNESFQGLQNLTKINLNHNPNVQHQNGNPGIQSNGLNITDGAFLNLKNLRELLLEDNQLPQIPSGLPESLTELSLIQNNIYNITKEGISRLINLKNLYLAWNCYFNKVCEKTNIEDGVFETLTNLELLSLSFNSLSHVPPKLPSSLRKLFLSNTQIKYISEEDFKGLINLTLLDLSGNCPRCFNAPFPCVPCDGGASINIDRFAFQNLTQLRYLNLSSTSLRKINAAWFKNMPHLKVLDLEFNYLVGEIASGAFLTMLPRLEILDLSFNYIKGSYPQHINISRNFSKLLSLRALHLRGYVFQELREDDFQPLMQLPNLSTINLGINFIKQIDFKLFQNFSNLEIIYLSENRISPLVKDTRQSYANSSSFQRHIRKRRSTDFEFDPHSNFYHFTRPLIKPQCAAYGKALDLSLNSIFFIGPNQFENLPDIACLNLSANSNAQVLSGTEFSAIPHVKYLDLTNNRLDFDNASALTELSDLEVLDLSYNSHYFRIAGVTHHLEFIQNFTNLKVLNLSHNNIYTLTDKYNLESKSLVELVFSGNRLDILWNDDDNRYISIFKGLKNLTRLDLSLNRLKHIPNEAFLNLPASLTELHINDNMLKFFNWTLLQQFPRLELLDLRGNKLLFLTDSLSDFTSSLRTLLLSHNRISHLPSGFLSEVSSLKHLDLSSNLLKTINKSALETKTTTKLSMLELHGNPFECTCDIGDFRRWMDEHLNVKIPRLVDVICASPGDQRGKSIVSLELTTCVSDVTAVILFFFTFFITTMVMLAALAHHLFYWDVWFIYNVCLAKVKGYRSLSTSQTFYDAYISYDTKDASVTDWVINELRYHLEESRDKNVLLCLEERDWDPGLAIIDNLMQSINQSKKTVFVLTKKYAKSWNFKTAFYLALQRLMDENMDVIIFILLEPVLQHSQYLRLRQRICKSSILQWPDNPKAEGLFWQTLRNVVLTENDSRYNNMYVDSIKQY
How it was run: as §1

[1] = HEK-Blue cells overexpressing human TLR7, SEAP reporter, read-out: TLR7 IC50
[2] = HEK-Blue cells overexpressing human TLR8, SEAP reporter, read-out: TLR8 IC50

| SMILES | IC50 (human TLR9) | IC50 (human TLR7; [1]) | IC50 (human TLR8; [2]) | IC50 (human TLR7; TLR7 IC50, HEK-Blue cells overexpressing human TLR7, SEAP reporter) | IC50 (human TLR8; TLR8 IC50, HEK-Blue cells overexpressing human TLR8, SEAP reporter) |
| --- | --- | --- | --- | --- | --- |
| COc1cc(-c2c(C(C)C)c3nc(C4CCN(CC(F)(F)F)CC4)sc3n2CC(F)(F)F)cn2ncnc12 [Example 9, 6-isopropyl-5-(8-methoxy-[1,2,4]triazolo[1,5-a]pyridin-6-yl)-4-(2,2,2-trifluoroethyl)-2-(1-(2,2,2-trifluoroethyl)piperidin-4-yl)-4H-pyrrolo[3,2-d]thiazole] | 4160 nM |  |  |  |  |
| Cc1cc(-c2[nH]c3sc(N4CCNC[C@H]4C)nc3c2C(C)C)cn2ncnc12 [Example 311, (R)-6-isopropyl-5-(8-methyl-[1,2,4]triazolo[1,5-a]pyridin-6-yl)-2-(2-methylpiperazin-1-yl)-4H-pyrrolo[3,2-d]thiazole] | 18800 nM | 1400 nM |  |  |  |
| Cc1cc(-c2[nH]c3sc(N4CCN(C5CCC5)C[C@H]4C)nc3c2C(C)C)cn2ncnc12 [Example 362, (R)-2-(4-cyclobutyl-2-methylpiperazin-1-yl)-6-isopropyl-5-(8-methyl-[1,2,4]triazolo[1,5-a]pyridin-6-yl)-4H-pyrrolo[3,2-d]thiazole] | 25100 nM |  |  |  |  |
| Cc1cc(-c2[nH]c3sc(C(=O)N4CCOCC4)nc3c2C(C)C)cn2ncnc12 [Example 398, (6-isopropyl-5-(8-methyl-[1,2,4]triazolo[1,5-a]pyridin-6-yl)-4H-pyrrolo[3,2-d]thiazol-2-yl)(morpholino)methanone] |  | 137 nM | 365 nM |  |  |
| Cc1cc(-c2[nH]c3sc(C(=O)NCC4(S(C)(=O)=O)CC4)nc3c2C(C)C)cn2ncnc12 [Example 399, 6-isopropyl-5-(8-methyl-[1,2,4]triazolo[1,5-a]pyridin-6-yl)-N-((1-(methylsulfonyl)cyclopropyl)methyl)-4H-pyrrolo[3,2-d]thiazole-2-carboxamide] |  | 126 nM | 132 nM |  |  |
| Cc1c(-c2[nH]c3sc(CNCC(N)=O)nc3c2C(C)C)cn2ncnc2c1C [Example 402, 2-(((5-(7,8-dimethyl-[1,2,4]triazolo[1,5-a]pyridin-6-yl)-6-isopropyl-4H-pyrrolo[3,2-d]thiazol-2-yl)methyl)amino)acetamide] |  | 35.1 nM | 297 nM |  |  |
| Cc1c(-c2[nH]c3sc(CN4CC5(C4)CS(=O)(=O)C5)nc3c2C(C)C)cn2ncnc2c1C [Example 403, 6-((5-(7,8-dimethyl-[1,2,4]triazolo[1,5-a]pyridin-6-yl)-6-isopropyl-4H-pyrrolo[3,2-d]thiazol-2-yl)methyl)-2-thia-6-azaspiro[3.3]heptane 2,2-dioxide] |  |  |  | 26.9 nM | 156 nM |
| Cc1c(-c2[nH]c3sc(CN4CC5(CCOCC5)C4)nc3c2C(C)C)cn2ncnc2c1C [Example 404, 2-((5-(7,8-dimethyl-[1,2,4]triazolo[1,5-a]pyridin-6-yl)-6-isopropyl-4H-pyrrolo[3,2-d]thiazol-2-yl)methyl)-7-oxa-2-azaspiro[3.5]nonane] |  | 43.6 nM | 124 nM |  |  |
| Cc1c(-c2[nH]c3sc(CN4CCNC(=O)C4)nc3c2C(C)C)cn2ncnc2c1C [Example 406, 4-((5-(7,8-dimethyl-[1,2,4]triazolo[1,5-a]pyridin-6-yl)-6-isopropyl-4H-pyrrolo[3,2-d]thiazol-2-yl)methyl) piperazin-2-one] |  | 2.74 nM | 142 nM |  |  |
| Cc1c(-c2[nH]c3sc(CN4CCOCC4)nc3c2C(C)C)cn2ncnc2c1C [Example 407, 4-((5-(7,8-dimethyl-[1,2,4]triazolo[1,5-a]pyridin-6-yl)-6-isopropyl-4H-pyrrolo[3,2-d]thiazol-2-yl)methyl)morpholine] |  | 28.6 nM | 279 nM |  |  |
| Cc1c(-c2[nH]c3sc(CN4CC5(COC5)C4)nc3c2C(C)C)cn2ncnc2c1C [Example 408, 6-((5-(7,8-dimethyl-[1,2,4]triazolo[1,5-a]pyridin-6-yl)-6-isopropyl-4H-pyrrolo[3,2-d]thiazol-2-yl)methyl)-2-oxa-6-azaspiro[3.3]heptane] |  | 47.4 nM | 168 nM |  |  |
